According to ChEMBL document CHEMBL3885881, “DrugMatrix”:

Species on record: Rattus norvegicus
Assay: DrugMatrix - Regimen: Daily Repeat
Format: toxicity, organism-based, Sprague-Dawley
Design: regimen Daily Repeat, gender Male, age 6-8 weeks
Settings: in vivo, po, route oral GAVAGE; for ABSOLUTE EOSINOPHIL / ABSOLUTE LYMPHOCYTE / ABSOLUTE MONOCYTE / ABSOLUTE SEGMENTED NEUTROPHIL / EOSINOPHIL / ERYTHROCYTE COUNT / HEMATOCRIT / HEMOGLOBIN / LEUKOCYTE COUNT / LYMPHOCYTE / MEAN CORPUSCULAR HEMOGLOBIN / MEAN CORPUSCULAR HEMOGLOBIN CONCENTRATION / MEAN CORPUSCULAR VOLUME / MONOCYTE / NEUTROPHIL / NUCLEATED RED BLOOD CELLS / PLATELET COUNT / ABSOLUTE BASOPHIL / BASOPHIL: tissue Blood; for ALANINE AMINOTRANSFERASE / ALBUMIN / ALKALINE PHOSPHATASE / ASPARTATE AMINOTRANSFERASE / BLOOD UREA NITROGEN / CARBON DIOXIDE / CHLORIDE / CHOLESTEROL / CREATINE PHOSPHOKINASE / CREATININE / GLUCOSE / LACTATE DEHYDROGENASE / LIPASE / PHOSPHORUS / POTASSIUM / SODIUM / TOTAL PROTEIN / URIC ACID / TOTAL BILIRUBIN: tissue Plasma
[1] = 0 mg/kg, 72 h, dose level Control, time 3 day, vehicle 100 % SALINE
[2] = 0 mg/kg, 72 h, dose level Control, time 3 day, vehicle 100 % WATER
[3] = 0 mg/kg, 120 h, dose level Control, time 5 day, vehicle 100 % SALINE
[4] = 0 mg/kg, 120 h, dose level Control, time 5 day, vehicle 100 % WATER
[5] = 300 mg/kg, 72 h, dose level M2, time 3 day, vehicle 100 % SALINE
[6] = 300 mg/kg, 120 h, dose level M2, time 5 day, vehicle 100 % SALINE

CCCc1nn(C)c2c(=O)[nH]c(-c3cc(S(=O)(=O)N4CCN(C)CC4)ccc3OCC)nc12
ABSOLUTE EOSINOPHIL [1]: 37 CELLS/uL
ABSOLUTE LYMPHOCYTE [1]: 12359.33 CELLS/uL
ABSOLUTE MONOCYTE [1]: 122.67 CELLS/uL
ABSOLUTE SEGMENTED NEUTROPHIL [1]: 847.67 CELLS/uL
EOSINOPHIL [1]: 0.33%
ERYTHROCYTE COUNT [1]: 5.75 x10E6/uL
HEMATOCRIT [1]: 36.08%
HEMOGLOBIN [1]: 14.07 G/DL
LEUKOCYTE COUNT [1]: 13.37 x10E3/uL
LYMPHOCYTE [1]: 92.5%
MEAN CORPUSCULAR HEMOGLOBIN [1]: 24.47 pg
MEAN CORPUSCULAR HEMOGLOBIN CONCENTRATION [1]: 38.98 G/DL
MEAN CORPUSCULAR VOLUME [1]: 62.78 fL
MONOCYTE [1]: 1%
NEUTROPHIL [1]: 6.17%
NUCLEATED RED BLOOD CELLS [1]: 0.17 /100WBC
PLATELET COUNT [1]: 1202.17 x10E3/uL
ABSOLUTE BASOPHIL [2]: 0 CELLS/uL
ABSOLUTE EOSINOPHIL [2]: 0 CELLS/uL
ABSOLUTE LYMPHOCYTE [2]: 7802.17 CELLS/uL
ABSOLUTE MONOCYTE [2]: 13.5 CELLS/uL
ABSOLUTE SEGMENTED NEUTROPHIL [2]: 617.67 CELLS/uL
BASOPHIL [2]: 0%
EOSINOPHIL [2]: 0%
ERYTHROCYTE COUNT [2]: 5.35 x10E6/uL
HEMATOCRIT [2]: 33.02%
HEMOGLOBIN [2]: 12.88 G/DL
LEUKOCYTE COUNT [2]: 8.43 x10E3/uL
LYMPHOCYTE [2]: 92.67%
MEAN CORPUSCULAR HEMOGLOBIN [2]: 24.12 pg
MEAN CORPUSCULAR HEMOGLOBIN CONCENTRATION [2]: 39.03 G/DL
MEAN CORPUSCULAR VOLUME [2]: 61.8 fL
MONOCYTE [2]: 0.17%
NEUTROPHIL [2]: 7.17%
NUCLEATED RED BLOOD CELLS [2]: 0 /100WBC
PLATELET COUNT [2]: 1124.83 x10E3/uL
ALANINE AMINOTRANSFERASE [1]: 50.67 u/L
ALBUMIN [1]: 4.13 G/DL
ALKALINE PHOSPHATASE [1]: 356.33 u/L
ASPARTATE AMINOTRANSFERASE [1]: 78.17 u/L
BLOOD UREA NITROGEN [1]: 14.17 mg/dL
CARBON DIOXIDE [1]: 31.33 mmol/L
CHLORIDE [1]: 98.5 MEQ/L
CHOLESTEROL [1]: 76.5 mg/dL
CREATINE PHOSPHOKINASE [1]: 248.33 u/L
CREATININE [1]: 0.2 mg/dL
GLUCOSE [1]: 144 mg/dL
LACTATE DEHYDROGENASE [1]: 107 u/L
LIPASE [1]: 9.83 u/L
PHOSPHORUS [1]: 12.8 mg/dL
POTASSIUM [1]: 6.75 MEQ/L
SODIUM [1]: 142 MEQ/L
TOTAL PROTEIN [1]: 5.98 G/DL
URIC ACID [1]: 1.42 mg/dL
ALANINE AMINOTRANSFERASE [2]: 54.17 u/L
ALBUMIN [2]: 4.07 G/DL
ALKALINE PHOSPHATASE [2]: 383.83 u/L
ASPARTATE AMINOTRANSFERASE [2]: 82.17 u/L
BLOOD UREA NITROGEN [2]: 13.67 mg/dL
CARBON DIOXIDE [2]: 31 mmol/L
CHLORIDE [2]: 100.83 MEQ/L
CHOLESTEROL [2]: 65.17 mg/dL
CREATINE PHOSPHOKINASE [2]: 228.33 u/L
CREATININE [2]: 0.12 mg/dL
GLUCOSE [2]: 148 mg/dL
LACTATE DEHYDROGENASE [2]: 97.83 u/L
LIPASE [2]: 9.17 u/L
PHOSPHORUS [2]: 9.75 mg/dL
POTASSIUM [2]: 5.85 MEQ/L
SODIUM [2]: 147.02 MEQ/L
TOTAL BILIRUBIN [2]: 0.18 mg/dL
TOTAL PROTEIN [2]: 6.1 G/DL
URIC ACID [2]: 0.5 mg/dL
ABSOLUTE LYMPHOCYTE [3]: 8681.17 CELLS/uL
ABSOLUTE MONOCYTE [3]: 79.83 CELLS/uL
ABSOLUTE SEGMENTED NEUTROPHIL [3]: 689 CELLS/uL
HEMATOCRIT [3]: 33.55%
HEMOGLOBIN [3]: 13.1 G/DL
LEUKOCYTE COUNT [3]: 9.45 x10E3/uL
LYMPHOCYTE [3]: 92.33%
MEAN CORPUSCULAR HEMOGLOBIN [3]: 23.92 pg
MEAN CORPUSCULAR HEMOGLOBIN CONCENTRATION [3]: 39.07 G/DL
MEAN CORPUSCULAR VOLUME [3]: 61.22 fL
MONOCYTE [3]: 0.67%
NEUTROPHIL [3]: 7%
PLATELET COUNT [3]: 1001.17 x10E3/uL
ABSOLUTE BASOPHIL [4]: 0 CELLS/uL
ABSOLUTE EOSINOPHIL [4]: 0 CELLS/uL
ABSOLUTE LYMPHOCYTE [4]: 10538 CELLS/uL
ABSOLUTE MONOCYTE [4]: 15.83 CELLS/uL
ABSOLUTE SEGMENTED NEUTROPHIL [4]: 762.83 CELLS/uL
BASOPHIL [4]: 0%
EOSINOPHIL [4]: 0%
ERYTHROCYTE COUNT [4]: 5.49 x10E6/uL
HEMATOCRIT [4]: 34.63%
HEMOGLOBIN [4]: 13.72 G/DL
LEUKOCYTE COUNT [4]: 11.32 x10E3/uL
LYMPHOCYTE [4]: 92.67%
MEAN CORPUSCULAR HEMOGLOBIN [4]: 24.97 pg
MEAN CORPUSCULAR HEMOGLOBIN CONCENTRATION [4]: 39.57 G/DL
MEAN CORPUSCULAR VOLUME [4]: 63.05 fL
MONOCYTE [4]: 0.17%
NEUTROPHIL [4]: 7.17%
NUCLEATED RED BLOOD CELLS [4]: 0.17 /100WBC
PLATELET COUNT [4]: 802 x10E3/uL
ALANINE AMINOTRANSFERASE [3]: 49.33 u/L
ALKALINE PHOSPHATASE [3]: 300.33 u/L
ASPARTATE AMINOTRANSFERASE [3]: 83.5 u/L
BLOOD UREA NITROGEN [3]: 16 mg/dL
CARBON DIOXIDE [3]: 29.67 mmol/L
CHLORIDE [3]: 100.5 MEQ/L
CHOLESTEROL [3]: 74.33 mg/dL
CREATINE PHOSPHOKINASE [3]: 489.67 u/L
CREATININE [3]: 0.35 mg/dL
GLUCOSE [3]: 151 mg/dL
LACTATE DEHYDROGENASE [3]: 133.67 u/L
LIPASE [3]: 11.17 u/L
PHOSPHORUS [3]: 10.88 mg/dL
POTASSIUM [3]: 5.5 MEQ/L
SODIUM [3]: 145.7 MEQ/L
TOTAL BILIRUBIN [3]: 0.2 mg/dL
URIC ACID [3]: 0.68 mg/dL
ALANINE AMINOTRANSFERASE [4]: 50.5 u/L
ALBUMIN [4]: 4.07 G/DL
ALKALINE PHOSPHATASE [4]: 336.83 u/L
ASPARTATE AMINOTRANSFERASE [4]: 81 u/L
BLOOD UREA NITROGEN [4]: 14.17 mg/dL
CARBON DIOXIDE [4]: 32 mmol/L
CHLORIDE [4]: 98.33 MEQ/L
CHOLESTEROL [4]: 69.17 mg/dL
CREATINE PHOSPHOKINASE [4]: 253.33 u/L
CREATININE [4]: 0.13 mg/dL
GLUCOSE [4]: 153.67 mg/dL
LACTATE DEHYDROGENASE [4]: 157 u/L
LIPASE [4]: 9 u/L
PHOSPHORUS [4]: 10.78 mg/dL
POTASSIUM [4]: 6.11 MEQ/L
SODIUM [4]: 144.57 MEQ/L
TOTAL BILIRUBIN [4]: 0.15 mg/dL
TOTAL PROTEIN [4]: 6.05 G/DL
URIC ACID [4]: 0.73 mg/dL
ABSOLUTE BASOPHIL [5]: 0 CELLS/uL
ABSOLUTE EOSINOPHIL [5]: 110.67 CELLS/uL
ABSOLUTE LYMPHOCYTE [5]: 12663.33 CELLS/uL
ABSOLUTE MONOCYTE [5]: 138 CELLS/uL
ABSOLUTE SEGMENTED NEUTROPHIL [5]: 821.33 CELLS/uL
BASOPHIL [5]: 0%
EOSINOPHIL [5]: 0.67%
ERYTHROCYTE COUNT [5]: 5.21 x10E6/uL
HEMATOCRIT [5]: 34.03%
HEMOGLOBIN [5]: 13.07 G/DL
LEUKOCYTE COUNT [5]: 13.73 x10E3/uL
LYMPHOCYTE [5]: 92.67%
MEAN CORPUSCULAR HEMOGLOBIN [5]: 25.03 pg
MEAN CORPUSCULAR HEMOGLOBIN CONCENTRATION [5]: 38.43 G/DL
MEAN CORPUSCULAR VOLUME [5]: 65.3 fL
MONOCYTE [5]: 0.67%
NEUTROPHIL [5]: 6%
NUCLEATED RED BLOOD CELLS [5]: 0.33 /100WBC
PLATELET COUNT [5]: 1148.67 x10E3/uL
ALANINE AMINOTRANSFERASE [5]: 45.67 u/L
ALBUMIN [5]: 3.8 G/DL
ALKALINE PHOSPHATASE [5]: 335 u/L
ASPARTATE AMINOTRANSFERASE [5]: 71.67 u/L
BLOOD UREA NITROGEN [5]: 13.33 mg/dL
CARBON DIOXIDE [5]: 27.67 mmol/L
CHLORIDE [5]: 100 MEQ/L
CHOLESTEROL [5]: 70.67 mg/dL
CREATINE PHOSPHOKINASE [5]: 284 u/L
CREATININE [5]: 0.2 mg/dL
GLUCOSE [5]: 154 mg/dL
LACTATE DEHYDROGENASE [5]: 142.33 u/L
LIPASE [5]: 12.33 u/L
PHOSPHORUS [5]: 11.37 mg/dL
POTASSIUM [5]: 5.84 MEQ/L
SODIUM [5]: 144.75 MEQ/L
TOTAL BILIRUBIN [5]: 0.13 mg/dL
TOTAL PROTEIN [5]: 5.13 G/DL
URIC ACID [5]: 0.97 mg/dL
ABSOLUTE BASOPHIL [6]: 0 CELLS/uL
ABSOLUTE EOSINOPHIL [6]: 0 CELLS/uL
ABSOLUTE LYMPHOCYTE [6]: 10278 CELLS/uL
ABSOLUTE MONOCYTE [6]: 0 CELLS/uL
ABSOLUTE SEGMENTED NEUTROPHIL [6]: 955.33 CELLS/uL
